The record followed here is ChEMBL document CHEMBL1133790, “Heteroaryl and cycloalkyl sulfonamide hydroxamic acid inhibitors of matrix metalloproteinases” (Bioorg Med Chem Lett, 2001).

The target of assay [1] is T1, Matrix metalloproteinase-9 (Homo sapiens, UniProt P14780). Nature of the assay: Inhibition of Matrix metalloprotease-9.
For assay [2], the target named is T2, Interstitial collagenase (Homo sapiens) (UniProt P03956).
T2 sequence (whole entry): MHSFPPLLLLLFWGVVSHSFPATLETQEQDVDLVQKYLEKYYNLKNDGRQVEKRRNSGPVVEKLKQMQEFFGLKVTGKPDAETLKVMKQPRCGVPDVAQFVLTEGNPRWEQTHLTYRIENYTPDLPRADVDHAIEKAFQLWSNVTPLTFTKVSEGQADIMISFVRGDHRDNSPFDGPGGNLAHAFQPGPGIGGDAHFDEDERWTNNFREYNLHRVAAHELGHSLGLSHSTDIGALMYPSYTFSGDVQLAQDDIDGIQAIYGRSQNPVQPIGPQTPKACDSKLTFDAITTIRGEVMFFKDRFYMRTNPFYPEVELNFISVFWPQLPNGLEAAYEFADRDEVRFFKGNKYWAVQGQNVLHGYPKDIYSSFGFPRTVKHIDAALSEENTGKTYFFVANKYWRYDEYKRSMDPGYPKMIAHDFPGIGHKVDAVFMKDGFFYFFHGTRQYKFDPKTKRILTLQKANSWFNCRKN
Nature of the assay: Inhibition of Matrix metalloprotease-1 at 1 uM.

The target in assay [3] is T1, Matrix metalloproteinase-9. Nature of the assay: Inhibition of Matrix metalloprotease-9 at 10 uM.
Assay [4] concerns the target T3, Collagenase 3 (Homo sapiens, UniProt P45452). Briefly: Inhibition of Matrix metalloprotease-13.
The next assay deals with T4, Interstitial collagenase (Homo sapiens, UniProt P03956).
T4 sequence (P03956 whole entry): T2 sequence (whole entry)
Nature of the assay: Inhibition of Matrix metalloprotease-1.

Assay [5] has as its system Rattus norvegicus. Briefly: Inhibitory activity against MMP-9 in rat dialysis implant bioactivity model at oral dose of 100 mg/kg; In active. More on the design: dose 100 mg/kg. The class given is functional, organism-based.
Assay [6] concerns the target T3, Collagenase 3. Nature of the assay: Inhibition of Matrix metalloprotease-13 at 0.3 uM.
The target in assay [7] is T1, Matrix metalloproteinase-9. Briefly: Inhibition of Matrix metalloprotease-9 at 0.3 uM.
The subject of assay [8] is Rattus norvegicus. Nature of the assay: In vivo inhibitory activity against Matrix metalloprotease-13 in rat dialysis implant bioactivity model at a concentration of 50 mg/kg; Not active. The class given is functional, organism-based. More on the design: dose 50 mg/kg.

Molecules are shown by their SMILES. The source made the active and inactive calls. The calls are words filed in the database; no cut-off is given here.

T1 sequence (P14780 whole entry): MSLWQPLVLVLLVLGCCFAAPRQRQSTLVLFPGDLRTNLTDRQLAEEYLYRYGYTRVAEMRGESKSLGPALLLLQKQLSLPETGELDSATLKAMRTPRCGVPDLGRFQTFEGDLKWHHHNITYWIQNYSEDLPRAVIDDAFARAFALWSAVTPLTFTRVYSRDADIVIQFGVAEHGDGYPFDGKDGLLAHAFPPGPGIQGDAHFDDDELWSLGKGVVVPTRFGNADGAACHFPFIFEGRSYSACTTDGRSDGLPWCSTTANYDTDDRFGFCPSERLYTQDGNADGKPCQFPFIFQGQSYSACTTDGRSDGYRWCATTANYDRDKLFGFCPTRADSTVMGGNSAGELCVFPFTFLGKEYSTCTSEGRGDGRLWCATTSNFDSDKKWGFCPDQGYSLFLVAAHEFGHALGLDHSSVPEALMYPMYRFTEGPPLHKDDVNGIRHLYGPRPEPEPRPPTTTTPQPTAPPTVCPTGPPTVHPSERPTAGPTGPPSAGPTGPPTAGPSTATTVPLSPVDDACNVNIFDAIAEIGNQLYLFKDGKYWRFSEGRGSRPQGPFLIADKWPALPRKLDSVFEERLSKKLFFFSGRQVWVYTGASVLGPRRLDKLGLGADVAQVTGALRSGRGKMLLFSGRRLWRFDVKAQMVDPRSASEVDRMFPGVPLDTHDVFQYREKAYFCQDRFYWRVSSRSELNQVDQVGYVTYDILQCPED

By IC50 is commonly meant the point on the concentration scale where inhibition reaches its midpoint. A lower IC50 goes with inhibition by little substance. A word on the inhibition: it is the relative decrease from the control value, in per cent. High values mean a strong effect, low ones a weak effect. For `COc1ccc(S(=O)(=O)N(Cc2ccccc2)c2c(C(=O)NO)cnn2C)cc1`, in assay [1], it took 900 nM to reach half-maximal inhibition (IC50). Also, the inhibition in assay [2] is 22%.
As to `COc1ccc(S(=O)(=O)N(Cc2ccccc2)c2cscc2C(=O)NO)cc1`, the results for the inhibition in [2] and in [3] were 40% and 67%, respectively.
`COc1ccc(S(=O)(=O)N(Cc2ccccc2)c2c(C(=O)NO)csc2Br)cc1`: half-maximal inhibition against Collagenase 3 [4] (IC50) was put at 427 nM.
Turning to `COc1ccc(S(=O)(=O)N(Cc2ccccc2)[C@H]2CCCC[C@H]2C(=O)NO)cc1`, the half-inhibitory concentration (IC50) in assay [1] was 318 nM; against Interstitial collagenase it was 361 nM.
With `COc1ccc(S(=O)(=O)N(Cc2cccnc2)c2c(C(=O)NO)csc2Br)cc1`, in the assay with Rattus norvegicus [5], the result was inactive. This compound also gave an inhibition in [2] of 50%.
Turning to `C#Cc1scc(C(=O)NO)c1N(Cc1ccccc1)S(=O)(=O)c1ccc(OC)cc1`, the values for the inhibition (at Collagenase 3 [6]; in assay [2]; in assay [7]) were 35%, 49% and 38%, respectively.
Consider `COc1ccc(S(=O)(=O)N(Cc2ccccc2)C2CCCC[C@H]2C(=O)NO)cc1` (some centres not stated), for which the concentration for half-maximal inhibition (IC50) was found to be 181 nM in assay [1] and 174 nM at Interstitial collagenase.
As for `COc1ccc(S(=O)(=O)N(Cc2ccccc2)c2ccsc2C(=O)NO)cc1`, the inhibition in [2] was 19%; in [3], 57%.
For `COc1ccc(S(=O)(=O)N(Cc2ccccc2)c2c(C(=O)NO)cc(OC)nc2OC)cc1`, the result in the assay with Rattus norvegicus [8] was inactive.
